{"source": "ChEMBL document CHEMBL6153025", "about": "“Multidrug-resistant bacteria quorum-sensing inhibitors: A particular focus on Pseudomonasaeruginosa” (Eur J Med Chem, 2025)", "key": {"Pseudomonas aeruginosa [1]": {"tested_on": "Pseudomonas aeruginosa", "experiment": "Antibiofilm activity against Pseudomonas aeruginosa PAO1", "type": "functional, organism-based"}, "Pseudomonas aeruginosa [2]": {"tested_on": "Pseudomonas aeruginosa", "experiment": "Downregulation of rhlR mRNA expression level in Pseudomonas aeruginosa PAO1 at 200 uM by RT-PCR analysis relative to control", "type": "functional"}, "Pseudomonas aeruginosa [3]": {"tested_on": "Pseudomonas aeruginosa", "experiment": "Antibacterial activity against Pseudomonas aeruginosa PAO1 assessed as bacterial growth inhibition incubated for 24 hrs by micro-broth dilution method", "type": "functional"}, "Pseudomonas aeruginosa [4]": {"tested_on": "Pseudomonas aeruginosa", "experiment": "Downregulation of rhlI mRNA expression level in Pseudomonas aeruginosa PAO1 at 200 uM by RT-PCR analysis relative to control", "type": "functional"}, "Pseudomonas aeruginosa [5]": {"tested_on": "Pseudomonas aeruginosa", "experiment": "Downregulation of lasR mRNA expression level in Pseudomonas aeruginosa PAO1 at 200 uM by RT-PCR analysis relative to control", "type": "functional"}, "Pseudomonas aeruginosa [6]": {"tested_on": "Pseudomonas aeruginosa", "experiment": "Downregulation of lasI mRNA expression level in Pseudomonas aeruginosa PAO1 at 200 uM by RT-PCR analysis relative to control", "type": "functional"}, "Pseudomonas aeruginosa [7]": {"tested_on": "Pseudomonas aeruginosa", "experiment": "Anti-virulence effect in Pseudomonas aeruginosa PAO1 assessed as inhibition of rhamnolipid production at 250 ug/ml relative to control", "type": "functional", "set-up": "scale not given: the % may be the effect or the level left", "details": "dose 250 µg/ml"}, "Pseudomonas aeruginosa [8]": {"tested_on": "Pseudomonas aeruginosa", "experiment": "Anti-virulence effect in Pseudomonas aeruginosa PAO1 assessed as inhibition of pyocyanin production at 250 ug/ml relative to control", "type": "functional", "set-up": "scale not given: the % may be the effect or the level left", "details": "dose 250 µg/ml"}, "Pseudomonas aeruginosa [9]": {"tested_on": "Pseudomonas aeruginosa", "experiment": "Antibiofilm activity against Pseudomonas aeruginosa PAO1 assessed as reduction in biofilm formation at 16 ug/ml incubated for 2 to 4 hrs by crystal violet staining based analysis relative to control", "type": "functional", "set-up": "scale not given: the % may be the effect or the level left", "details": "dose 16 µg/ml; time 2-4 hrs"}, "Pseudomonas aeruginosa [10]": {"tested_on": "Pseudomonas aeruginosa", "experiment": "Antibiofilm activity against Pseudomonas aeruginosa PAO1 assessed as inhibition of biofilm formation at 250 ug/ml incubated for 24 hrs by crystal violet staining based assay relative to control", "type": "functional", "set-up": "scale not given: the % may be the effect or the level left", "details": "dose 250 µg/ml"}, "Pseudomonas aeruginosa [11]": {"tested_on": "Pseudomonas aeruginosa", "experiment": "Antibacterial activity against Pseudomonas aeruginosa PAO1 assessed as bacterial growth inhibition measured after 18 hrs by CLSI protocol based two-fold serial microdilution method", "type": "functional"}, "Pseudomonas aeruginosa [12]": {"tested_on": "Pseudomonas aeruginosa", "experiment": "Anti-virulence effect in Pseudomonas aeruginosa PAO1 assessed as inhibition of rhamnolipid production at 10 uM relative to control", "type": "functional", "set-up": "scale not given: the % may be the effect or the level left"}, "Pseudomonas aeruginosa [13]": {"tested_on": "Pseudomonas aeruginosa", "experiment": "Antivirulence activity against Pseudomonas aeruginosa PAO1 assessed as inhibition of pyocyanin production at 25 ug/ml incubated for 16 hrs under agitation by photometric analysis relative to control", "type": "functional", "set-up": "scale not given: the % may be the effect or the level left", "details": "dose 25 µg/ml"}, "Pseudomonas aeruginosa [14]": {"tested_on": "Pseudomonas aeruginosa", "experiment": "Antivirulence activity against Pseudomonas aeruginosa PAO1 assessed as inhibition of pyocyanin production at 16 ug/ml relative to control", "type": "functional", "set-up": "scale not given: the % may be the effect or the level left", "details": "dose 16 µg/ml"}, "[15]": {"experiment": "Inhibition of quorum sensing system in Pseudomonas aeruginosa PAO1- rhlA-gfp assessed as reduction in fluorescence intensity measured for 12 hrs by GFP reporter strain assay"}, "[16]": {"experiment": "Inhibition of quorum sensing system in Pseudomonas aeruginosa PAO1-pqsA-gfp assessed as reduction in fluorescence intensity incubated for 12 hrs by GFP reporter strain assay"}, "Pseudomonas aeruginosa [17]": {"tested_on": "Pseudomonas aeruginosa", "experiment": "Antivirulence activity in Pseudomonas aeruginosa PAO1 assessed as reduction in elastase production at 10 uM relative to control", "type": "functional", "set-up": "scale not given: the % may be the effect or the level left"}, "Pseudomonas aeruginosa [18]": {"tested_on": "Pseudomonas aeruginosa", "experiment": "Downregulation of rhlA mRNA level in Pseudomonas aeruginosa PAO1 at 32 ug/ml relative to control", "type": "functional", "details": "dose 32 µg/ml"}, "Pseudomonas aeruginosa [19]": {"tested_on": "Pseudomonas aeruginosa", "experiment": "Antivirulence activity against Pseudomonas aeruginosa PAO1 assessed as reduction in pyocyanin level at 10 uM relative to control", "type": "functional", "set-up": "scale not given: the % may be the effect or the level left"}, "Pseudomonas aeruginosa [20]": {"tested_on": "Pseudomonas aeruginosa", "experiment": "Inhibition of pyocyanin production in Pseudomonas aeruginosa PAO1", "type": "functional, organism-based"}, "Pseudomonas aeruginosa [21]": {"tested_on": "Pseudomonas aeruginosa", "experiment": "Antibiofilm activity against Pseudomonas aeruginosa ATCC 27853 assessed as reduction in biofilm biomass at 16 ug/ml relative to control", "type": "functional", "set-up": "scale not given: the % may be the effect or the level left", "details": "dose 16 µg/ml"}, "[22]": {"experiment": "Inhibition of quorum sensing system in Pseudomonas aeruginosa PAO1 expressing lasB-gfp"}, "Pseudomonas aeruginosa [23]": {"tested_on": "Pseudomonas aeruginosa", "experiment": "Anti-virulence activity in Pseudomonas aeruginosa PAO1 assessed as reduction in elastase production", "type": "functional, organism-based"}, "Pseudomonas aeruginosa [24]": {"tested_on": "Pseudomonas aeruginosa", "experiment": "Inhibition of rhamnolipid production in Pseudomonas aeruginosa PAO1", "type": "functional, organism-based"}, "Pseudomonas aeruginosa [25]": {"tested_on": "Pseudomonas aeruginosa", "experiment": "Antibiofilm activity against logarithmic growth phase Pseudomonas aeruginosa PAO1 assessed as inhibition of biofilm formation incubated for 20 hrs by crystal violet staining based analysis", "type": "functional, organism-based", "details": "PAO1, 20 h"}}}
{"smiles": "O=c1c(O)c(-c2ccc(O)c(O)c2)oc2cc(O)cc(O)c12", "note": "[QUERCETIN]", "values": [{"measurement": "IC50", "setting": "Pseudomonas aeruginosa [1]", "result": 100, "unit": "µM"}, {"measurement": "Activity", "setting": "Pseudomonas aeruginosa [2]", "result": 85, "unit": "%"}, {"measurement": "MIC", "setting": "Pseudomonas aeruginosa [3]", "result": 1, "unit": "µM"}, {"measurement": "Activity", "setting": "Pseudomonas aeruginosa [4]", "result": 85, "unit": "%"}, {"measurement": "Activity", "setting": "Pseudomonas aeruginosa [5]", "result": 85, "unit": "%"}, {"measurement": "Activity", "setting": "Pseudomonas aeruginosa [6]", "result": 85, "unit": "%"}]}
{"smiles": "O=C1CCc2ccccc2O1", "note": "[DIHYDROCOUMARIN]", "values": [{"measurement": "Activity", "setting": "Pseudomonas aeruginosa [7]", "result": 48.94, "unit": "%"}, {"measurement": "Activity", "setting": "Pseudomonas aeruginosa [8]", "result": 87.25, "unit": "%"}, {"measurement": "Activity", "setting": "Pseudomonas aeruginosa [9]", "result": 36, "unit": "%"}, {"measurement": "Activity", "setting": "Pseudomonas aeruginosa [10]", "result": 46.1, "unit": "%"}]}
{"smiles": "Oc1ncnc2[nH]ncc12", "note": "[ALLOPURINOL]", "values": [{"measurement": "MIC", "setting": "Pseudomonas aeruginosa [11]", "result": 2, "unit": "µg/mL"}, {"measurement": "Activity", "setting": "Pseudomonas aeruginosa [12]", "result": 74, "unit": "%"}, {"measurement": "Activity", "setting": "Pseudomonas aeruginosa [13]", "result": 70, "unit": "%"}, {"measurement": "Activity", "setting": "Pseudomonas aeruginosa [14]", "result": 74, "unit": "%"}]}
{"smiles": "C=C1CC(=O)N(CCCCCCCCCCCCCC)C1=O", "values": [{"measurement": "IC50", "setting": "[15]", "result": 0.61, "unit": "µM"}, {"measurement": "IC50", "setting": "[16]", "result": 143, "unit": "nM"}, {"measurement": "Activity", "setting": "Pseudomonas aeruginosa [17]", "result": 50, "unit": "%"}, {"measurement": "Activity", "setting": "Pseudomonas aeruginosa [18]", "result": 75, "unit": "%"}, {"measurement": "Activity", "setting": "Pseudomonas aeruginosa [19]", "result": 55, "unit": "%"}]}
{"smiles": "O=C(/C=C/c1ccc(O)c(O)c1)OCCc1ccc(Br)cc1", "values": [{"measurement": "IC50", "setting": "Pseudomonas aeruginosa [20]", "result": 20, "unit": "µM"}, {"measurement": "Activity", "setting": "Pseudomonas aeruginosa [21]", "result": 33.69, "unit": "%"}, {"measurement": "IC50", "setting": "[22]", "result": 20, "unit": "µM"}, {"measurement": "IC50", "setting": "Pseudomonas aeruginosa [23]", "result": 20, "unit": "µM"}, {"measurement": "IC50", "setting": "Pseudomonas aeruginosa [24]", "result": 1250, "unit": "nM"}]}
{"smiles": "C=C1CC(=O)N(c2ccc(Br)cc2)C1=O", "values": [{"measurement": "IC50", "setting": "[15]", "result": 6.67, "unit": "µM"}, {"measurement": "IC50", "setting": "[16]", "result": 2510, "unit": "nM"}, {"measurement": "IC50", "setting": "Pseudomonas aeruginosa [25]", "result": 10, "unit": "µM"}, {"measurement": "Activity", "setting": "Pseudomonas aeruginosa [18]", "result": 78, "unit": "%"}, {"measurement": "Activity", "setting": "Pseudomonas aeruginosa [19]", "result": 55, "unit": "%"}]}
